The target in this assay is Recombinant human ULK1 (1-649) (Homo sapiens (Human), UniProt O75385). As to the kind of experiment: ULK1 ADP Glo kinase activity assay (MBP substrate). The settings on record: 25° C., 40 minutes, read-out: ULK1 biochemical IC50. Summed up: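 GST-tagged ULK1 (1-649) from Sf9 cells phosphorylated MBP, with ATP, for 40 min at 25 °C across a 12-point series from 10 uM. ADP formed was quantified by ADP-Glo luminescence against DMSO controls. IC50 came from a four-parameter variable-slope fit of log concentration.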
Recombinant human ULK1 (1-649), sequence (O75385 1-649): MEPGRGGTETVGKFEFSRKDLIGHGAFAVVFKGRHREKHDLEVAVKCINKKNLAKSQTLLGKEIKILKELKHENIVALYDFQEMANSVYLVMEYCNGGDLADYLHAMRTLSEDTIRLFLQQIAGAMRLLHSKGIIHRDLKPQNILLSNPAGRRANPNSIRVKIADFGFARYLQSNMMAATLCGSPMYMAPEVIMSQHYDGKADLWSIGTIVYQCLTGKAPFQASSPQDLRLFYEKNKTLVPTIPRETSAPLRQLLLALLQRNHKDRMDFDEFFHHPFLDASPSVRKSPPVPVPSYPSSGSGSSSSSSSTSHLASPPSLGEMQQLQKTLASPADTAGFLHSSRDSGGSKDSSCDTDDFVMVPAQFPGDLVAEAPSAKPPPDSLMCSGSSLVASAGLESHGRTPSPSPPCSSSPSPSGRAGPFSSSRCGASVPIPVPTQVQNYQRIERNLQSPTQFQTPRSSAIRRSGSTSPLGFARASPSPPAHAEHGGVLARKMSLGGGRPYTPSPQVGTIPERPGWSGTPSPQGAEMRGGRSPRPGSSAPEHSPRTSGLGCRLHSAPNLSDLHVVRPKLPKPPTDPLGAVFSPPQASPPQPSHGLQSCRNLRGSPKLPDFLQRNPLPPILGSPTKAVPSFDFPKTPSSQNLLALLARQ
For orientation: ADP-Glo first removes unused ATP, then detects ADP through luciferase.

As usually defined, the pIC50 is the IC50 on a negative log10 scale, so that one unit is a factor of ten.

Molecules are shown by their SMILES. pIC50: −log10 of the molar value.

With `CS(=O)(=O)c1csc(-c2nc(Nc3cc4c(cc3F)CNCC4)ncc2C(F)(F)F)c1` [Example 91, 7-fluoro-N-(4-(4-(methylsulfonyl)thiophen-2-yl)-5-(trifluoromethyl)pyrimidin-2-yl)-1,2,3,4-tetrahydroisoquinolin-6-amine], the pIC50 is at least 8.00.
Under `CS(=O)(=O)c1csc(-c2nc(Nc3cc4c(cc3C3CC3)CNCC4)ncc2C(F)(F)F)c1` [Example 132, 7-cyclopropyl-N-(4-(4-(methylsulfonyl)thiophen-2-yl)-5-(trifluoromethyl)pyrimidin-2-yl)-1,2,3,4-tetrahydroisoquinolin-6-amine] stands at least 8.00.
Under `CN1CCC(n2cc(Nc3ncc(C(F)(F)F)c(-c4cc(S(C)(=O)=O)cs4)n3)c(C3CC3)n2)CC1` [Example 129, N-(3-cyclopropyl-1-(1-methylpiperidin-4-yl)-1H-pyrazol-4-yl)-4-(4-(methylsulfonyl)thiophen-2-yl)-5-(trifluoromethyl)pyrimidin-2-amine] stands at least 8.00; under `CN1CCc2cc(Cl)c(Nc3ncc(C(F)(F)F)c(-c4cc(S(C)(=O)=O)cs4)n3)cc2C1` [Example 100, 6-chloro-2-methyl-N-(4-(4-(methylsulfonyl)thiophen-2-yl)-5-(trifluoromethyl)pyrimidin-2-yl)-1,2,3,4-tetrahydroisoquinolin-7-amine], at least 8.00; under `CCc1cc2c(cc1Nc1ncc(C(F)(F)F)c(-c3cc(C(N)=O)cs3)n1)CCN(C)C2` [Example 13, 5-(2-((7-ethyl-2-methyl-1,2,3,4-tetrahydroisoquinolin-6-yl)amino)-5-(trifluoromethyl)pyrimidin-4-yl)thiophene-3-carboxamide], at least 8.00.
Under `CN1CCc2cc(Cl)c(Nc3ncc(C(F)(F)F)c(-c4cc5c(s4)CCCNC5=O)n3)cc2C1` [Example 49, 2-(2-((6-chloro-2-methyl-1,2,3,4-tetrahydroisoquinolin-7-yl)amino)-5-(trifluoromethyl)pyrimidin-4-yl)-5,6,7,8-tetrahydro-4H-thieno[3,2-c]azepin-4-one] stands at least 8.00; under `NC(=O)c1csc(-c2nc(Nc3cc4c(cc3C3CC3)CNCC4)ncc2C(F)(F)F)c1` [Example 10, 5-(2-((7-cyclopropyl-1,2,3,4-tetrahydroisoquinolin-6-yl)amino)-5-(trifluoromethyl)pyrimidin-4-yl)thiophene-3-carboxamide], at least 8.00.
As to `CSc1cc2c(cc1Nc1ncc(C(F)(F)F)c(-c3cc4c(s3)CCNC4=O)n1)CCNC2` [Example 35, 2-(2-((7-(Methylthio)-1,2,3,4-tetrahydroisoquinolin-6-yl)amino)-5-(trifluoromethyl)pyrimidin-4-yl)-6,7-dihydrothieno[3,2-c]pyridin-4(5H)-one], the pIC50 is at least 8.00.
`CP(C)(=O)c1csc(-c2nc(Nc3cc4c(cc3Cl)CNCC4)ncc2C(F)(F)F)c1` [Example 38, (5-(2-((7-Chloro-1,2,3,4-tetrahydroisoquinolin-6-yl)amino)-5-(trifluoromethyl)pyrimidin-4-yl)thiophen-3-yl)dimethylphosphine oxide]: the negative-log IC50 (pIC50) was 7.30 to 8.00.
In the case of `O=C1NCCc2sc(-c3nc(Nc4cc5c(cc4C4CC4)CNCC5)ncc3C(F)(F)F)cc21` [Example 29, 2-(2-((7-Cyclopropyl-1,2,3,4-tetrahydroisoquinolin-6-yl)amino)-5-(trifluoromethyl)pyrimidin-4-yl)-6,7-dihydrothieno[3,2-c]pyridin-4(5H)-one] it was at least 8.00.
In the case of `Nc1csc(-c2nc(Nc3cc4c(cc3Cl)CNCC4)ncc2C(F)(F)F)c1` [Example 15, N-(4-(4-aminothiophen-2-yl)-5-(trifluoromethyl)pyrimidin-2-yl)-7-chloro-1,2,3,4-tetrahydroisoquinolin-6-amine] it was 7.30 to 8.00; in that of `COCCOc1sc(-c2nc(Nc3cc4c(cc3Cl)CNCC4)ncc2C(F)(F)F)cc1S(C)(=O)=O` [Example 56, 7-chloro-N-(4-(5-(2-methoxyethoxy)-4-(methylsulfonyl)thiophen-2-yl)-5-(trifluoromethyl)pyrimidin-2-yl)-1,2,3,4-tetrahydroisoquinolin-6-amine], at least 8.00.
In the case of `CCN1CCS(=O)(=O)c2cc(-c3nc(Nc4cc5c(cc4Cl)CNCC5)ncc3C(F)(F)F)sc2C1=O` [Example 135, 7-(2-((7-chloro-1,2,3,4-tetrahydroisoquinolin-6-yl)amino)-5-(trifluoromethyl)pyrimidin-4-yl)-4-ethyl-3,4-dihydrothieno[2,3-f][1,4]thiazepin-5(2H)-one 1,1-dioxide] it was at least 8.00.
With `O=C1NCCc2sc(-c3nc(Nc4cc5c(cc4F)CNCC5)ncc3C(F)(F)F)cc21` [Example 43, 2-(2-((7-fluoro-1,2,3,4-tetrahydroisoquinolin-6-yl)amino)-5-(trifluoromethyl)pyrimidin-4-yl)-6,7-dihydrothieno[3,2-c]pyridin-4(5H)-one], the negative-log IC50 (pIC50) is at least 8.00.
Under `Cc1cnc(Nc2cc3c(cc2Cl)CNCC3)nc1-c1cc(S(C)(=O)=O)cs1` [Example 94, 7-chloro-N-(5-methyl-4-(4-(methylsulfonyl)thiophen-2-yl)pyrimidin-2-yl)-1,2,3,4-tetrahydroisoquinolin-6-amine] stands at least 8.00; under `CN1CCc2cc(Nc3ncc(C(F)(F)F)c(-c4cc5c(s4)CN(C)CCS5(=O)=O)n3)c(Cl)cc2C1` [Example 109, 7-chloro-2-methyl-N-[4-(4-methyl-1,1-dioxo-3,5-dihydro-2H-thieno[2,3-f][1,4]thiazepin-7-yl)-5-(trifluoromethyl)pyrimidin-2-yl]-3,4-dihydro-1H-isoquinolin-6-amine], at least 8.00; under `CN1CC(c2ccc(Cl)c(Nc3ncc(C(F)(F)F)c(-c4cc(S(C)(=O)=O)cs4)n3)c2)C1` [Example 122, N-(2-chloro-5-(1-methylazetidin-3-yl)phenyl)-4-(4-(methylsulfonyl)thiophen-2-yl)-5-(trifluoromethyl)pyrimidin-2-amine], 6.30 to 7.00.
As to `CN1CCc2cc(Nc3ncc(C(F)(F)F)c(-c4cc(S(C)(=O)=O)cs4)n3)c(Cl)cc2C1` [Example 95, 7-chloro-2-methyl-N-(4-(4-(methylsulfonyl)thiophen-2-yl)-5-(trifluoromethyl)pyrimidin-2-yl)-1,2,3,4-tetrahydroisoquinolin-6-amine], the pIC50 was at least 8.00.
Under `Cc1nn(C2CN(C)C2)cc1Nc1ncc(C(F)(F)F)c(-c2cc(S(C)(=O)=O)cs2)n1` [Example 120, N-[3-methyl-1-(1-methylazetidin-3-yl)pyrazol-4-yl]-4-(4-methylsulfonyl-2-thienyl)-5-(trifluoromethyl)pyrimidin-2-amine] stands 7.30 to 8.00.
In the case of `O=c1[nH]ncc2sc(-c3nc(Nc4cc5c(cc4Cl)CNCC5)ncc3C(F)(F)F)cc12` [Example 24, 2-(2-((7-Chloro-1,2,3,4-tetrahydroisoquinolin-6-yl)amino)-5-(trifluoromethyl)pyrimidin-4-yl)thieno[2,3-d]pyridazin-4(5H)-one] it was 7.30 to 8.00; in that of `CS(=O)(=O)c1csc(-c2nc(Nc3cc4c(cc3Cl)CNCC4)ncc2C2CC2)c1` [Example 89, 7-chloro-N-(5-cyclopropyl-4-(4-(methylsulfonyl)thiophen-2-yl)pyrimidin-2-yl)-1,2,3,4-tetrahydroisoquinolin-6-amine], 7.30 to 8.00; in that of `CN1CCc2cc(Nc3ncc(C(F)(F)F)c(-c4cc(S(C)(=O)=O)cs4)n3)c(C3CC3)cc2C1` [Example 115, 7-cyclopropyl-2-methyl-N-[4-(4-methylsulfonyl-2-thienyl)-5-(trifluoromethyl)pyrimidin-2-yl]-3,4-dihydro-1H-isoquinolin-6-amine], at least 8.00.
Under `CS(=O)(=O)c1cc(-c2nc(Nc3cc4c(cc3Cl)CNCC4)ncc2C(F)(F)F)sc1N1CCS(=O)(=O)CC1` [Example 90, 4-(5-(2-((7-chloro-1,2,3,4-tetrahydroisoquinolin-6-yl)amino)-5-(trifluoromethyl)pyrimidin-4-yl)-3-(methylsulfonyl)thiophen-2-yl)thiomorpholine 1,1-dioxide] stands at least 8.00; under `Cc1c(S(C)(=O)=O)csc1-c1nc(Nc2cc3c(cc2Cl)CNCC3)ncc1C(F)(F)F` [Example 79, 7-chloro-N-(4-(3-methyl-4-(methylsulfonyl)thiophen-2-yl)-5-(trifluoromethyl)pyrimidin-2-yl)-1,2,3,4-tetrahydroisoquinolin-6-amine], 6.30 to 7.00.
Consider `CN1CCc2cc(Nc3ncc(C(F)(F)F)c(-c4cc(C(N)=O)cs4)n3)c(C3CC3)cc2C1` [Example 14, 5-(2-((7-cyclopropyl-2-methyl-1,2,3,4-tetrahydroisoquinolin-6-yl)amino)-5-(trifluoromethyl)pyrimidin-4-yl)thiophene-3-carboxamide], for which the pIC50 is at least 8.00.
In the case of `CN1C(=O)c2cc(-c3nc(Nc4cc5c(cc4Cl)CNCC5)ncc3C(F)(F)F)sc2C1(C)C` [Example 42, 2-(2-((7-chloro-1,2,3,4-tetrahydroisoquinolin-6-yl)amino)-5-(trifluoromethyl)pyrimidin-4-yl)-5,6,6-trimethyl-5,6-dihydro-4H-thieno[2,3-c]pyrrol-4-one] it was at least 8.00; in that of `Cc1sc(-c2nc(Nc3cc4c(cc3Cl)CNCC4)ncc2C(F)(F)F)cc1C(N)=O` [Example 45, 5-(2-((7-chloro-1,2,3,4-tetrahydroisoquinolin-6-yl)amino)-5-(trifluoromethyl)pyrimidin-4-yl)-2-methylthiophene-3-carboxamide], at least 8.00; in that of `CS(=O)(=O)c1csc(-c2nc(Nc3cc4c(cc3F)CN(C3CC3)C4)ncc2C(F)(F)F)c1` [Example 114, 2-cyclopropyl-6-fluoro-N-[4-(4-methylsulfonyl-2-thienyl)-5-(trifluoromethyl)pyrimidin-2-yl]isoindolin-5-amine], 7.30 to 8.00.
In the case of `CS(=O)(=O)c1csc(-c2nc(Nc3cc4c(cc3C3CC3)CNC4)ncc2C(F)(F)F)c1` [Example 131, 6-cyclopropyl-N-(4-(4-(methylsulfonyl)thiophen-2-yl)-5-(trifluoromethyl)pyrimidin-2-yl)isoindolin-5-amine] it was at least 8.00.

Source of the values: patent US20250144094A1 (Erasca, Inc., priority 2021, published 2025).
